Results taken from PubChem BioAssay AID1963451 (Molecular Pharmacology Branch, DTP, NCI, 2024).

Test system: 521955-158-R6-J3-PDC complex spheroid growth, % test/control
Test: Anticancer human tumor 521955-158-R6-J3-PDC patient-derived pancreatic carcinoma cell line growth inhibition [Asc]
Conditions: for IC50: curve of first compound; for viability, T/C: stronger effect = lower value; active means viability on the fitted dose curve at most 10% of control; inactive means the rest
How it was run: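 Spheroid model: tumor line + HUVEC + hMSC. Single agents and combinations; top conc. at/near clinical Cmax (10 microM if undetermined), half-log dilutions. DMSO stocks at 800-fold test concentration.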
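Further: spheroids exposed to compounds for 7 days.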
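Wherever viability, T/C is given: 100% = DMSO vehicle control wells.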

NC(=O)C(=Cn1cnc(-c2cc(C(F)(F)F)cc(C(F)(F)F)c2)n1)c1cncnc1 + CCN1C(C(=O)NC23CCC(C(=O)O)(CC2)CC3)C(c2cccc(Cl)c2F)C2(C(=O)Nc3cc(Cl)ccc32)C12CCCCC2
> 300 nM: IC50 (second compound 0.00949 µM) | IC50 (second compound 0.03 µM) | IC50 (second compound 0.0949 µM) | IC50 (second compound 0.3 µM) | IC50 (second compound 0.949 µM) | IC50 (second compound 3 µM)
inactive: viability, T/C (second compound 0.00949 µM, first compound 0.000949 µM) 99.6% | viability, T/C (second compound 0.00949 µM, first compound 0.003 µM) 86.8% | viability, T/C (second compound 0.00949 µM, first compound 0.00949 µM) 77.3% | viability, T/C (second compound 0.00949 µM, first compound 0.03 µM) 99% | viability, T/C (second compound 0.00949 µM, first compound 0.0949 µM) 82.9% | viability, T/C (second compound 0.00949 µM, first compound 0.3 µM) 93.2% | viability, T/C (second compound 0.03 µM, first compound 0.000949 µM) 93.7% | viability, T/C (second compound 0.03 µM, first compound 0.003 µM) 83.7% | viability, T/C (second compound 0.03 µM, first compound 0.00949 µM) 69.6% | viability, T/C (second compound 0.03 µM, first compound 0.03 µM) 86% | viability, T/C (second compound 0.03 µM, first compound 0.0949 µM) 103% | viability, T/C (second compound 0.03 µM, first compound 0.3 µM) 102% | viability, T/C (second compound 0.0949 µM, first compound 0.000949 µM) 88.8% | viability, T/C (second compound 0.0949 µM, first compound 0.003 µM) 87.3% | viability, T/C (second compound 0.0949 µM, first compound 0.00949 µM) 78.1% | viability, T/C (second compound 0.0949 µM, first compound 0.03 µM) 85.1% | viability, T/C (second compound 0.0949 µM, first compound 0.0949 µM) 98.8% | viability, T/C (second compound 0.0949 µM, first compound 0.3 µM) 113% | viability, T/C (second compound 0.3 µM, first compound 0.000949 µM) 88.7% | viability, T/C (second compound 0.3 µM, first compound 0.003 µM) 76.9% | viability, T/C (second compound 0.3 µM, first compound 0.00949 µM) 85.8% | viability, T/C (second compound 0.3 µM, first compound 0.03 µM) 82.2% | viability, T/C (second compound 0.3 µM, first compound 0.0949 µM) 117% | viability, T/C (second compound 0.3 µM, first compound 0.3 µM) 107% | viability, T/C (second compound 0.949 µM, first compound 0.000949 µM) 94% | viability, T/C (second compound 0.949 µM, first compound 0.003 µM) 78.3% | viability, T/C (second compound 0.949 µM, first compound 0.00949 µM) 95.1% | viability, T/C (second compound 0.949 µM, first compound 0.03 µM) 78.7% | viability, T/C (second compound 0.949 µM, first compound 0.0949 µM) 105% | viability, T/C (second compound 0.949 µM, first compound 0.3 µM) 98.1% | viability, T/C (second compound 3 µM, first compound 0.000949 µM) 87.2% | viability, T/C (second compound 3 µM, first compound 0.003 µM) 97.7% | viability, T/C (second compound 3 µM, first compound 0.00949 µM) 69.6% | viability, T/C (second compound 3 µM, first compound 0.03 µM) 75.7% | viability, T/C (second compound 3 µM, first compound 0.0949 µM) 99.8% | viability, T/C (second compound 3 µM, first compound 0.3 µM) 84.4%

NC1CCC(NC2CC2c2ccccc2)CC1 (centres undefined) + CCN1C(C(=O)NC23CCC(C(=O)O)(CC2)CC3)C(c2cccc(Cl)c2F)C2(C(=O)Nc3cc(Cl)ccc32)C12CCCCC2
inactive: viability, T/C (second compound 0.00949 µM, first compound 0.000316 µM) 112% | viability, T/C (second compound 0.00949 µM, first compound 0.001 µM) 104% | viability, T/C (second compound 0.00949 µM, first compound 0.00316 µM) 90.5% | viability, T/C (second compound 0.00949 µM, first compound 0.01 µM) 105% | viability, T/C (second compound 0.00949 µM, first compound 0.0316 µM) 85.3% | viability, T/C (second compound 0.00949 µM, first compound 0.1 µM) 108% | viability, T/C (second compound 0.03 µM, first compound 0.000316 µM) 111% | viability, T/C (second compound 0.03 µM, first compound 0.001 µM) 106% | viability, T/C (second compound 0.03 µM, first compound 0.00316 µM) 100% | viability, T/C (second compound 0.03 µM, first compound 0.01 µM) 99.6% | viability, T/C (second compound 0.03 µM, first compound 0.0316 µM) 105% | viability, T/C (second compound 0.03 µM, first compound 0.1 µM) 84.7% | viability, T/C (second compound 0.0949 µM, first compound 0.000316 µM) 108% | viability, T/C (second compound 0.0949 µM, first compound 0.001 µM) 118% | viability, T/C (second compound 0.0949 µM, first compound 0.00316 µM) 120% | viability, T/C (second compound 0.0949 µM, first compound 0.01 µM) 127% | viability, T/C (second compound 0.0949 µM, first compound 0.0316 µM) 99.6% | viability, T/C (second compound 0.0949 µM, first compound 0.1 µM) 99.9% | viability, T/C (second compound 0.3 µM, first compound 0.000316 µM) 94.6% | viability, T/C (second compound 0.3 µM, first compound 0.001 µM) 108% | viability, T/C (second compound 0.3 µM, first compound 0.00316 µM) 111% | viability, T/C (second compound 0.3 µM, first compound 0.01 µM) 101% | viability, T/C (second compound 0.3 µM, first compound 0.0316 µM) 110% | viability, T/C (second compound 0.3 µM, first compound 0.1 µM) 102% | viability, T/C (second compound 0.949 µM, first compound 0.000316 µM) 101% | viability, T/C (second compound 0.949 µM, first compound 0.001 µM) 125% | viability, T/C (second compound 0.949 µM, first compound 0.00316 µM) 114% | viability, T/C (second compound 0.949 µM, first compound 0.01 µM) 105% | viability, T/C (second compound 0.949 µM, first compound 0.0316 µM) 113% | viability, T/C (second compound 0.949 µM, first compound 0.1 µM) 96% | viability, T/C (second compound 3 µM, first compound 0.000316 µM) 113% | viability, T/C (second compound 3 µM, first compound 0.001 µM) 109% | viability, T/C (second compound 3 µM, first compound 0.00316 µM) 128% | viability, T/C (second compound 3 µM, first compound 0.01 µM) 104% | viability, T/C (second compound 3 µM, first compound 0.0316 µM) 111% | viability, T/C (second compound 3 µM, first compound 0.1 µM) 88.7%
> 100 nM: IC50 (second compound 0.00949 µM) | IC50 (second compound 0.03 µM) | IC50 (second compound 0.0949 µM) | IC50 (second compound 0.3 µM) | IC50 (second compound 0.949 µM) | IC50 (second compound 3 µM)
